# Results taken from patent US11254663B2 (BRISTOL-MYERS SQUIBB COMPANY, priority 2019, dated 2022).
# pEC50: −log10 of the molar value.
# Molecular target: FXR (Homo sapiens (Human), UniProt Q96RI1)
# Assay: transient human FXR/Gal4-luciferase reporter assay
# Format: cell-based
# Settings: not given
# Summary of the method: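 HEK293 cells stably carrying a 5×Gal4 response element–firefly luciferase reporter were transiently transfected overnight with a Gal4 DBD–human FXR LBD fusion plasmid. Compound was added in DMSO and cells were incubated overnight at 37 °C, 5% CO2. Activity was read as Steady-Glo luminescence.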
# Sequence of FXR (Q96RI1 262-486): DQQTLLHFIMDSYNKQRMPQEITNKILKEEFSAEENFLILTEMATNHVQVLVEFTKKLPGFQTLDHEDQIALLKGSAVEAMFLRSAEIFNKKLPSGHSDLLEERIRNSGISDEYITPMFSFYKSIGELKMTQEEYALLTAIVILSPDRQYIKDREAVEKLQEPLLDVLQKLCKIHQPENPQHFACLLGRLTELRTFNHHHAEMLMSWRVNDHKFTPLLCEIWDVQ
row,Structure (SMILES),pEC50
1,"CC(C)(C)c1nc(C23CCC(CN(C(=O)C45CC(F)(C4)C5)c4cncc(-c5ccc(NS(C)(=O)=O)cc5)c4)(CC2)CC3)no1 [Example 481, N-((4-(5-(tert-butyl)-1,2,4-oxadiazol-3-yl)bicyclo[2.2.2]octan-1-yl)methyl)-3-fluoro-N-(5-(4-(methylsulfonamido)phenyl)pyridin-3-yl)bicyclo[1.1.1]pentane-1-carboxamide]",6.24
2,"Cc1nc2ccc(-c3cccc(N(CC45CCC(c6noc(C(F)F)n6)(CC4)CC5)C(=O)C45CC(F)(C4)C5)c3)cc2s1 [Example 462, N-((4-(5-(difluoromethyl)-1,2,4-oxadiazol-3-yl)bicyclo[2.2.2]octan-1-yl)methyl)-3-fluoro-N-(3-(2-methylbenzo[d]thiazol-6-yl)phenyl)bicyclo[1.1.1]pentane-1-carboxamide]",6.97
3,"CC(C)(O)c1ccc(-c2cccc(N(CC34CCC(c5noc(C(C)(C)F)n5)(CC3)CC4)C(=O)NC3CCS(=O)(=O)CC3)c2)cc1 [Example 644, 3-(1,1-dioxidotetrahydro-2H-thiopyran-4-yl)-1-((4-(5-(2-fluoropropan-2-yl)-1,2,4-oxadiazol-3-yl)bicyclo[2.2.2]octan-1-yl)methyl)-1-(4′-(2-hydroxypropan-2-yl)-[1,1′-biphenyl]-3-yl)urea]",6.13
4,"CC(C)(C)c1nc(C23CCC(CN(C(=O)C45CC(F)(C4)C5)c4cc(-c5ccc(NS(C)(=O)=O)cc5)ccn4)(CC2)CC3)no1 [Example 534, N-((4-(5-(tert-butyl)-1,2,4-oxadiazol-3-yl)bicyclo[2.2.2]octan-1-yl)methyl)-3-fluoro-N-(4-(4-(methylsulfonamido)phenyl)pyridin-2-yl)bicyclo[1.1.1]pentane-1-carboxamide]",7.11
5,"Cc1nc2ccc(-c3cccc(N(CC45CCC(c6noc(C7(C(F)(F)F)CC7)n6)(CC4)CC5)C(=O)C45CC(F)(C4)C5)c3)cc2s1 [Example 524, 3-fluoro-N-(3-(2-methylbenzo[d]thiazol-6-yl)phenyl)-N-((4-(5-(1-(trifluoromethyl)cyclopropyl)-1,2,4-oxadiazol-3-yl)bicyclo[2.2.2]octan-1-yl)methyl)bicyclo[1.1.1]pentane-1-carboxamide]",6.92
6,"O=C(N(CC12CCC(c3noc(C4(C(F)(F)F)CC4)n3)(CC1)CC2)c1cccc(-c2ccc(OC(F)F)cc2)c1)C12CC(F)(C1)C2 [Example 522, N-(4′-(difluoromethoxy)-[1,1′-biphenyl]-3-yl)-3-fluoro-N-((4-(5-(1-(trifluoromethyl)cyclopropyl)-1,2,4-oxadiazol-3-yl)bicyclo[2.2.2]octan-1-yl)methyl)bicyclo[1.1.1]pentane-1-carboxamide]",7.16

# Same assay, conditions: Gal4-hFXR fusion construct, HEK293 reporter cells; response relative to 8 μM GW-4064
row,Structure (SMILES),pEC50
1,"CC(C)(F)c1nc(C23CCC(CN(C(=O)OC(C)(C)C(F)(F)F)c4cc(-c5cnn(CC6COC6)c5)c(F)cn4)(CC2)CC3)no1 [Example 621, 1,1,1-trifluoro-2-methylpropan-2-yl(5-fluoro-4-(1-(oxetan-3-ylmethyl)-1H-pyrazol-4-yl)pyridin-2-yl)((4-(5-(2-fluoropropan-2-yl)-1,2,4-oxadiazol-3-yl)bicyclo[2.2.2]octan-1-yl)methyl)carbamate]",7.08
2,"CS(=O)(=O)Nc1ncc(-c2cccc(N(CC34CCC(c5nc(C6CC6)no5)(CC3)CC4)C(=O)C34CC(F)(C3)C4)c2)cn1 [Example 272, N-((4-(3-cyclopropyl-1,2,4-oxadiazol-5-yl)bicyclo[2.2.2]octan-1-yl)methyl)-3-fluoro-N-(3-(2-(methylsulfonamido)pyrimidin-5-yl)phenyl)bicyclo[1.1.1]pentane-1-carboxamide]",6.25
3,"CC(C)(C#N)Oc1ccc(-c2ccnc(N(CC34CCC(c5ccc(C(C)(F)F)cn5)(CC3)CC4)C(=O)OC(C)(C)C(F)(F)F)c2)cc1 [Example 606, 1,1,1-trifluoro-2-methylpropan-2-yl (4-(4-((2-cyanopropan-2-yl)oxy)phenyl)pyridin-2-yl)((4-(5-(1,1-difluoroethyl)pyridin-2-yl)bicyclo[2.2.2]octan-1-yl)methyl)carbamate]",7.02
4,"O=C(N(CC12CCC(c3nc(C4CC4)no3)(CC1)CC2)c1cccc(-c2ccc(NS(=O)(=O)C(F)(F)F)cc2)c1)C12CC(F)(C1)C2 [Example 267, N-((4-(3-cyclopropyl-1,2,4-oxadiazol-5-yl)bicyclo[2.2.2]octan-1-yl)methyl)-3-fluoro-N-(4′-((trifluoromethyl)sulfonamido)-[1,1′-biphenyl]-3-yl)bicyclo[1.1.1]pentane-1-carboxamide]",7.34
5,"CCOc1ccc(-c2cccc(N(CC34CCC(c5nc(C6CC6)no5)(CC3)CC4)C(=O)C34CC(F)(C3)C4)c2)nn1 [Example 283, N-((4-(3-cyclopropyl-1,2,4-oxadiazol-5-yl)bicyclo[2.2.2]octan-1-yl)methyl)-N-(3-(6-ethoxypyridazin-3-yl)phenyl)-3-fluorobicyclo[1.1.1]pentane-1-carboxamide]",6.63
6,"COc1cc(-c2cccc(N(CC34CCC(c5nc(C6CC6)no5)(CC3)CC4)C(=O)C34CC(F)(C3)C4)c2)ccc1F [Example 260, N-((4-(3-cyclopropyl-1,2,4-oxadiazol-5-yl)bicyclo[2.2.2]octan-1-yl)methyl)-3-fluoro-N-(4′-fluoro-3′-methoxy-[1,1′-biphenyl]-3-yl)bicyclo[1.1.1]pentane-1-carboxamide]",6.16
7,"COc1ncc(-c2cccc(N(CC34CCC(c5nc(C(C)C)no5)(CC3)CC4)C(=O)C34CC(F)(C3)C4)c2)cn1 [Example 383, 3-Fluoro-N-((4-(3-isopropyl-1,2,4-oxadiazol-5-yl)bicyclo[2.2.2]octan-1-yl)methyl)-N-(3-(2-methoxypyrimidin-5-yl)phenyl)bicyclo[1.1.1]pentane-1-carboxamide]",7.33
8,"N#Cc1cccc(-c2cccc(N(CC34CCC(c5nc(C6CC6)no5)(CC3)CC4)C(=O)C34CC(F)(C3)C4)c2)n1 [Example 292, N-(3-(6-cyanopyridin-2-yl)phenyl)-N-((4-(3-cyclopropyl-1,2,4-oxadiazol-5-yl)bicyclo[2.2.2]octan-1-yl)methyl)-3-fluorobicyclo[1.1.1]pentane-1-carboxamide]",6.83
9,"CC(=O)Nc1cn2nc(-c3cccc(N(CC45CCC(c6nc(C7CC7)no6)(CC4)CC5)C(=O)C45CC(F)(C4)C5)c3)ccc2n1 [Example 336, N-(3-(2-acetamidoimidazo[1,2-b]pyridazin-6-yl)phenyl)-N-((4-(3-cyclopropyl-1,2,4-oxadiazol-5-yl)bicyclo[2.2.2]octan-1-yl)methyl)-3-fluorobicyclo[1.1.1]pentane-1-carboxamide]",5.91
10,"COc1ncc(-c2cccc(N(CC34CCC(c5noc(C6(C)CC6)n5)(CC3)CC4)C(=O)C34CC(F)(C3)C4)c2)cn1 [Example 400, 3-fluoro-N-(3-(2-methoxypyrimidin-5-yl)phenyl)-N-((4-(5-(1-methylcyclopropyl)-1,2,4-oxadiazol-3-yl)bicyclo[2.2.2]octan-1-yl)methyl)bicyclo[1.1.1]pentane-1-carboxamide]",7.29
11,"CCOc1ccc(-c2cccc(N(CC34CCC(c5nc(C6CC6)no5)(CC3)CC4)C(=O)C34CC(F)(C3)C4)c2)cc1 [Example 290, N-((4-(3-cyclopropyl-1,2,4-oxadiazol-5-yl)bicyclo[2.2.2]octan-1-yl)methyl)-N-(4′-ethoxy-[1,1′-biphenyl]-3-yl)-3-fluorobicyclo[1.1.1]pentane-1-carboxamide]",7.22
12,"CC(C)(O)c1cnc(-c2ccnc(N(CC34CCC(c5ccc(C(C)(F)F)cn5)(CC3)CC4)C(=O)OC(C)(C)C(F)(F)F)c2)nc1 [Example 608, 1,1,1-trifluoro-2-methylpropan-2-yl ((4-(5-(1,1-difluoroethyl)pyridin-2-yl)bicyclo[2.2.2]octan-1-yl)methyl)(4-(5-(2-hydroxypropan-2-yl)pyrimidin-2-yl)pyridin-2-yl) carbamate]",6.52
13,"CCOc1ccc(-c2cccc(N(CC34CCC(c5noc(C(C)(F)F)n5)(CC3)CC4)C(=O)C34CC(F)(C3)C4)c2)cc1 [Example 527, N-((4-(5-(1,1-difluoroethyl)-1,2,4-oxadiazol-3-yl)bicyclo[2.2.2]octan-1-yl)methyl)-N-(4′-ethoxy-[1,1′-biphenyl]-3-yl)-3-fluorobicyclo[1.1.1]pentane-1-carboxamide]",6.99
14,"CCOc1ncc(-c2cccc(N(CC34CCC(c5cnc(C(F)(F)F)nc5)(CC3)OC4)C(=O)C34CC(F)(C3)C4)c2)cn1 [Example 418, N-(3-(2-ethoxypyrimidin-5-yl)phenyl)-3-fluoro-N-((1-(2-(trifluoromethyl)pyrimidin-5-yl)-2-oxabicyclo[2.2.2]octan-4-yl)methyl)bicyclo[1.1.1]pentane-1-carboxamide]",5.69
15,"Cc1nc2ccc(-c3cccc(N(CC45CCC(c6nc(C(C)(C)C)no6)(CC4)CC5)C(=O)C45CC(F)(C4)C5)c3)cc2s1 [Example 362, N-((4-(3-(tert-butyl)-1,2,4-oxadiazol-5-yl)bicyclo[2.2.2]octan-1-yl)methyl)-3-fluoro-N-(3-(2-methylbenzo[d]thiazol-6-yl)phenyl)bicyclo[1.1.1]pentane-1-carboxamide]",6.69
16,"O=C(C1CC(F)(F)C1)N(CC12CCC(c3nc(C4CC4)no3)(CC1)CC2)c1cccc(-c2ccnc(OC3CC3)n2)c1 [Example 338, N-(3-(2-cyclopropoxypyrimidin-4-yl)phenyl)-N-((4-(3-cyclopropyl-1,2,4-oxadiazol-5-yl)bicyclo[2.2.2]octan-1-yl)methyl)-3,3-difluorocyclobutane-1-carboxamide]",5.86
17,"COCc1ccc(-c2cccc(N(CC34CCC(c5nc(C(C)C)no5)(CC3)CC4)C(=O)C34CC(F)(C3)C4)c2)cc1 [Example 392, 3-fluoro-N-((4-(3-isopropyl-1,2,4-oxadiazol-5-yl)bicyclo[2.2.2]octan-1-yl)methyl)-N-(4′-(methoxymethyl)-[1,1′-biphenyl]-3-yl)bicyclo[1.1.1]pentane-1-carboxamide]",6.74
